Values quoted from earlier work as cited in patent US20090022706A1, “SUBSTITUTED CYCLOHEXENES” (Auspex Pharmaceuticals, Inc., priority 2007, published 2009).

Legend:
[1] = tested on: nitric oxide (NO) production
[2] = tested on: Toll-Like Receptor 4 (TLR4)-mediated cytokine production; details: under pro-inflammatory conditions

## CCOC(=O)C1=CCCC[C@H]1S(=O)(=O)Nc1ccc(F)cc1Cl [TAK-242, (R)-6-(2-chloro-4-fluoro-phenylsulfamoyl)-cyclohex-1-enecarboxylic acid ethyl ester]
[1]
  in vitro production of nitric oxide (NO): inhibits
[2]
  production of various cytokines, such as IL-1β, IL-6, IL-12, and TNF-α: inhibits
